{
  "source": "patent US9539298B2",
  "about": "“Lissencephaly therapeutic agent” (OSAKA CITY UNIVERSITY, priority 2010, dated 2017)",
  "key": {"[1]": {"test_system": "fibroblasts derived from human lissencephaly patient (Lis1 +/−)", "assay": "Fluorescence immunostaining of fibroblasts derived from a human lissencephaly patient", "format": "cell-based", "conditions": "200 μM, two hours", "description": "The establishment of fibroblasts was performed in the following manner. Under a germ-free condition, a portion of epidermis (5 mm square) was obtained from a lissencephaly patient. The obtained epidermis was transported for 4 hours at room temperature while stored in a culture solution (E-MEM (Wako Pure Chemical Industries, Ltd., 051-07615), 10% fetal bovine blood serum (Equitech-Bio Inc, SFBM30-1798, 1×L-glutamine (Gibco, 25030), 1× Pen-Strep (Gibco, 15140)) (*the culture solution with this formulation is used hereinafter). After transportation, the tissue fragment was cut into a 1 mm square, fixed to a culture flask (Becton Dickinson 353009), and cultured for three weeks in 6 ml of a culture solution. After the 3-week culture, the amplification of fibroblasts from the tissue fragment was confirmed; then, the fragment was washed with a phosphate buffer physiological saline solution (phosphate buffered saline, PBS (−), 137 mM NaCl, 2.7 mM KCl, 10 mM Na2HPO4, 1.8 mM KH2PO4, pH 7.4), and 0.5 ml of trypsin-EDTA (Gibco, 25200) was added, followed by reaction for 5 minutes at 37° C. to separate the cells. Then, 10 ml of a culture solution was added, and the fragment was transferred to a 10 cm petri dish (Greiner, 664-160) for culture.\nTo observe the cells with a microscope, the cells were cultured on cover glasses. The cover glasses (24×24 No. 1, Matsunami Glass Ind., Ltd.) were immersed in 0.1 M hydrochloric acid for 20 minutes. After washing with water, the cover glasses were placed in 70% ethanol, and kept in a clean bench. In the clean bench, each cover glass was placed on the bottom of each well of a 6-well plate (Falcon 353046). After the ethanol was dried, 0.5×10^5 fibroblasts per well were added and cultured for 16 hours, thereby adhering the cells onto the cover glasses.\nA SNJ-1945-containing culture solution was prepared. […]"}, "[2]": {"test_system": "LIS1 heterozygous newborn mice", "assay": "LIS1 protein in newborn mouse brains after SNJ-1945 oral administration", "format": "in vivo", "description": "A neo(−)129S-Pafah1b1^tm2Awb/J homozygous male mouse lacking neo gene was mated with five homozygous EII-Cre transgenic female mice (FVB/N-Tg (EIIa-cre) C5379Lmgd/J, The Jackson Laboratory) by raising them in the same mouse cage. In total, six sets of mouse cages were prepared for the mating experiment. A newborn was defined at the time of delivery confirmation, which was conducted every morning. SNJ-1945 was dissolved in dimethyl sulfoxide (DMSO) at a concentration of 100 mg/ml, and orally administered using pipettes to the newborn mice in an amount of 200 μg/per gram of body weight.\nTo determine the effect of SNJ-1945 administration, LIS1 proteins of normal newborn mice and LIS1 heterozygous newborn mice (administered with SNJ-1945) were measured. In the SNJ-1945 administration group, the brain tissues were taken at 0 hour (immediately after the administration), 1 hour, 2 hours, 4 hours, 8 hours, 12 hours, 16 hours, 24 hours, 48 hours, and 72 hours after the administration to measure LIS1 protein, so as to determine the effect of SNJ-1945 over time. Six mice for each group were used for the measurement of LIS1 protein (n=6).\nThe newborn mice were killed by cutting off their heads, and the brain tissues thereof were immediately isolated. For the measurement of LIS1 protein amount, the weight of the brains was immediately measured as soon as the brains were removed."}},
  "data": [
    {"smiles": "COCCOCCOC(=O)N[C@@H](CC(C)C)C(=O)N[C@@H](Cc1ccccc1)C(=O)C(=O)NC1CC1", "note": "[compound 17, ((1S)-1-((((1S)-1-Benzyl-2,3-dioxo-3-(cyclopropylamino)propyl)amino)carbonyl)-3-methylbutyl)carbamic acid 5-methoxy-3-oxapentyl ester]", "values": [
      {"measurement": "intracellular distribution of LIS1", "setting": "[1]; FIGS. 15 and 16", "result": "causes LIS1 to be accumulated around the nucleus or centrosome again"},
      {"measurement": "intracellular distribution of cytoplasmatic dynein", "setting": "[1]; FIGS. 17 and 18", "result": "cytoplasmatic dynein became completely diffused again from the region around the nucleus to the cell marginal zone"},
      {"measurement": "intracellular distribution of β-COP-coated vesicles", "setting": "[1]; FIGS. 19 and 20", "result": "β-COP-coated vesicles became distributed evenly from the region around the nucleus to the cell marginal zone again"},
      {"measurement": "LIS1 protein amount in newborn brain", "setting": "[2]; 200 μg per gram of body weight, oral, FIG. 7", "result": "recovered to substantially the normal level"},
      {"measurement": "duration of the effect on LIS1 protein after a single dose", "setting": "[2]; 200 μg/g oral", "result": "continued for at least three days"}
    ]}
  ]
}
